# Test results: US20050208037A1, “Thioredoxin increases redox-cycling of anticancer agents thereby sensitizes cancer cells to apoptosis” (Board of Regents, The University of Texas System, priority 2003, published 2005)
# Tests used:
# [1] = test system: Trx9 cells (MCF-7 clones expressing thioredoxin); test: Superoxide production in cell lysate by SOD-inhibitable reduction of ferricytochrome c; format: biochemical, human; details: Trx9 cells; for inhibition of SOD-inhibitable rate of O2— generation: inhibitor 50 μM, then 10 μM doxorubicin
# Description: Determination of superoxide production by reduction of ferricytochrome c. Superoxide production was measured as superoxide dismutase (SOD) inhibitable reduction of ferricytochrome c (Azzi et al. 1975). Cells were sonicated in potassium phosphate buffer (0.05M, pH 7.8 plus 1 mM EDTA), centrifuged and the supernatant was used for the assay. To determine the superoxide generation in the cell lysate, the supernatant was incubated with 10 μM drug and 10 μM cytochrome c, with or without 1U SOD to determine SOD inhibitable rate. The specificity of thioredoxin mediated superoxide generation in the supernatant was detected by pre-incubation of cell lysates with anti-human thioredoxin antibody (American Diagnostica, Greenwich, Conn.) for 15 min. All reactions were performed in triplicate. The reduction of ferricytochrome c was measured both in kinetic and end point mode with path check on for 1 hr duration at a wavelength of 550 nm using a Spectramax 190 plate reader (Molecular Devices). Total protein was quantified using Bradford protein assay (Biorad) and the superoxide generation was determined per milligram of protein in the extracts.
# [2] = test system: p53 in Trx9 cells; test: Western blotting of p53 and phospho-p53 (ser-15); format: cell-based, human; details: daunomycin treated Trx9 cells, 4 hr
# Description: Western blotting. Equal amounts of protein were resolved on 10% SDS-polyacrylamide gel electrophoresis, and transferred to nitrocellulose membrane (Hybond-ECL, Amersham Pharmacia Biotech) immunoblotted with anti-p53 or anti-p53 phospho ser-15 (Cell Signaling Technology, Beverly, Mass.) and visualized using Lumiglo system with antirabbit conjugated HRP. For cytochrome c determination the cytosolic protein was resolved on 15% SDS-PAGE and immunoblotted using anti-cytochrome c (BD Pharmingen, San Diego, Calif.) and visualized using the ECL system (Amersham Pharmacia Biotech, Piscataway, N.J.) and anti-mouse IgG conjugated HRP (Santa Cruz Biotech, California).
# [3] = test system: p53 in Trx9 cells; test: Electrophoretic mobility shift assay of p53 DNA binding; format: cell-based, human; details: daunomycin treated Trx9 cells, 4 hr
# Description: Nuclear Extract preparation. Nuclear extract was prepared as described previously (Das, 2001). […] The extracts were then centrifuged at 14,000 rpm for 25 min and the supernatant was saved as nuclear extract in −70° C. for further experiments. Protein was quantified using Bradford protein assay (Biorad).
# Electrophoretic Mobility shift assay (EMSA). For the EMSA the p53 consensus oligonucleotide was obtained from Genosys 5′-[…]-3′ (SEQ ID NO:9) and end labeled using T4 Poly nucleotide kinase (New England Biolabs, Beverly, Mass.) and [γ-^32P] ATP (Perkin Elmer, Boston, Mass.) in 10× kinase buffer supplied with the enzyme. […] The nuclear protein was separated by electrophoresis using 4% native polyacrylamide gel and 0.25× of TBE (Tris-Borate-EDTA) as running buffer. The gels were dried and exposed to Kodax Biomax X-ray film overnight.
# [4] = metabolite of daunorubicin; cited from earlier work
SMILES,inhibition of SOD-inhibitable rate of O2— generation [1],effect on p53 ser-15 phosphorylation [2],also measured
"Nn1nnc2ccccc21 [ABT, 1-Aminobenzotriazole]",54%,,
"c1ccc2c(c1)[I+]c1ccccc1-2 [DPIC, dipheyleneiodonium]",,abolished,"effect on p53 DNA binding ([3]; DPIC 50 μM): abolished; effect on generation of O2— ([1]; DPIC 25 or 50 μM pre-incubation, 10 μM doxorubicin): inhibited generation of O2—"
O=C(O)c1ccc(/C2=C3\C=CC(=N3)/C(c3ccc(C(=O)O)cc3)=c3/cc/c4[n]3[Mn]([Cl])[n]3c2ccc3/C(c2ccc(C(=O)O)cc2)=C2/C=CC(=N2)\C=4c2ccc(C(=O)O)cc2)cc1 [MnTBAP],,no appreciable decrease,reduction in p53 DNA binding activity (densitometric analysis) [3]: about 30%
"Nc1ncnc2c1ncn2[C@@H]1O[C@H](COP(=O)(O)O)[C@@H](O)[C@H]1OP(=O)(O)O [PAMP, 2′-Phospho-5′-AMP]",76%,,
COc1cccc2c1C(=O)c1c(O)c3c(c(O)c1C2=O)C[C@@](O)([C@H](C)O)C[C@@H]3O[C@H]1C[C@H](N)[C@H](O)[C@H](C)O1 [daunorubicinol],,,half-life of active metabolite [4]: about 27 hr
